Assay [1] has as its target T1, Replicative DNA helicase DnaB (Mycobacterium tuberculosis, UniProt P9WMR3).
T1 sequence (P9WMR3 whole entry): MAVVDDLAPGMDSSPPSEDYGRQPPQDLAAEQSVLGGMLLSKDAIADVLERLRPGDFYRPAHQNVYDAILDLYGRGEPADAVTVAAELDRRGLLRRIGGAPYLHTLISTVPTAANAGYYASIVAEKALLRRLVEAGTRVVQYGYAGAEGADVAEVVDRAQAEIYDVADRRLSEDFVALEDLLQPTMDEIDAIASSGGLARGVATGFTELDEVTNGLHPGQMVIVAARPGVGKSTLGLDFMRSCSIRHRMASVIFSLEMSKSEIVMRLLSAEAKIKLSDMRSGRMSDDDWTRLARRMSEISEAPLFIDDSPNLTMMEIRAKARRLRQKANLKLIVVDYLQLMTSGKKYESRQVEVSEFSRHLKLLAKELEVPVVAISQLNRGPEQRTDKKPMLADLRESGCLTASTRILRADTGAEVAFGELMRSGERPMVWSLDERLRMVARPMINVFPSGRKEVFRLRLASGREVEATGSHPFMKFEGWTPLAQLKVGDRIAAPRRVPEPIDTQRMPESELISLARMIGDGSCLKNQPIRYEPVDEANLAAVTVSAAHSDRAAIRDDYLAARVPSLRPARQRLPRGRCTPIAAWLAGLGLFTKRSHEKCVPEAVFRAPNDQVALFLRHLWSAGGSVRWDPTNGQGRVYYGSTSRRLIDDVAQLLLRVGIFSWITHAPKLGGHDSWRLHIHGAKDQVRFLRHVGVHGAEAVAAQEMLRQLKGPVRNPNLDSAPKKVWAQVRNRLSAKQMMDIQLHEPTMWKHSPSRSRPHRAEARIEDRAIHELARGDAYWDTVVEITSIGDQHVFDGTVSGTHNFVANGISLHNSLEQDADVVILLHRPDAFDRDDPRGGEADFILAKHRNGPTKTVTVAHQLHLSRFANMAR
The assay is described as follows: DnaB intein splicing inhibitors, dose response, biochemical, cell-free fluorescence (AID 449749). The assay is classed as functional.

A further assay has as its target T2, Protein RecA (Mycobacterium tuberculosis, UniProt P9WHJ3).
T2 sequence (P9WHJ3 whole entry): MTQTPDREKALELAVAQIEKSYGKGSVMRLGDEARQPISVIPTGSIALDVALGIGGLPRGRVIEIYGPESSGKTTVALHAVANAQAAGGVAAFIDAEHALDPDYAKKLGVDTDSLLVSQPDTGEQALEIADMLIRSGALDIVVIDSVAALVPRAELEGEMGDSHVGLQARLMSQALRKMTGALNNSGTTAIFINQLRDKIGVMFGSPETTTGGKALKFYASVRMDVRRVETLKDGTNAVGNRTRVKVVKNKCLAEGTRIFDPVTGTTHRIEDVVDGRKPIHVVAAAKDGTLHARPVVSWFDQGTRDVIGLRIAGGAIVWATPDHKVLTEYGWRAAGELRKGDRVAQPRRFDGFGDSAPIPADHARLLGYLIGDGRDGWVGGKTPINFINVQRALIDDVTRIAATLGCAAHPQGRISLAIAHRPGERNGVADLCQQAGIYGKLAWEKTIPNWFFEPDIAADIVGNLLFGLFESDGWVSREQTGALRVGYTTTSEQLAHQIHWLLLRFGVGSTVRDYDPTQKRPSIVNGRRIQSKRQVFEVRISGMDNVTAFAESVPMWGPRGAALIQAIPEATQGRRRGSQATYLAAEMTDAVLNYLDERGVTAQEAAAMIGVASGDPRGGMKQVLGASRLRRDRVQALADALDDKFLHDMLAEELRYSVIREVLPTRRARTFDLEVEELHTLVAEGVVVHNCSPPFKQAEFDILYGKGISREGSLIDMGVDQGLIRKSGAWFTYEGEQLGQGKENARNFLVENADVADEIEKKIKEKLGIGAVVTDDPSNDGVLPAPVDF
Description: Fluorescence Cell-Free Homogeneous Dose Retest to Identify Inhibitors of RecA-Intein Splicing Activity. [Related pubchem assays (depositor defined):AID2097, AID2223, AID489010, AID492950]. The assay is classed as functional.

For assay [2], the target named is T3, Short transient receptor potential channel 4 (Mus musculus, UniProt Q9QUQ5).
T3 sequence (Q9QUQ5 whole entry): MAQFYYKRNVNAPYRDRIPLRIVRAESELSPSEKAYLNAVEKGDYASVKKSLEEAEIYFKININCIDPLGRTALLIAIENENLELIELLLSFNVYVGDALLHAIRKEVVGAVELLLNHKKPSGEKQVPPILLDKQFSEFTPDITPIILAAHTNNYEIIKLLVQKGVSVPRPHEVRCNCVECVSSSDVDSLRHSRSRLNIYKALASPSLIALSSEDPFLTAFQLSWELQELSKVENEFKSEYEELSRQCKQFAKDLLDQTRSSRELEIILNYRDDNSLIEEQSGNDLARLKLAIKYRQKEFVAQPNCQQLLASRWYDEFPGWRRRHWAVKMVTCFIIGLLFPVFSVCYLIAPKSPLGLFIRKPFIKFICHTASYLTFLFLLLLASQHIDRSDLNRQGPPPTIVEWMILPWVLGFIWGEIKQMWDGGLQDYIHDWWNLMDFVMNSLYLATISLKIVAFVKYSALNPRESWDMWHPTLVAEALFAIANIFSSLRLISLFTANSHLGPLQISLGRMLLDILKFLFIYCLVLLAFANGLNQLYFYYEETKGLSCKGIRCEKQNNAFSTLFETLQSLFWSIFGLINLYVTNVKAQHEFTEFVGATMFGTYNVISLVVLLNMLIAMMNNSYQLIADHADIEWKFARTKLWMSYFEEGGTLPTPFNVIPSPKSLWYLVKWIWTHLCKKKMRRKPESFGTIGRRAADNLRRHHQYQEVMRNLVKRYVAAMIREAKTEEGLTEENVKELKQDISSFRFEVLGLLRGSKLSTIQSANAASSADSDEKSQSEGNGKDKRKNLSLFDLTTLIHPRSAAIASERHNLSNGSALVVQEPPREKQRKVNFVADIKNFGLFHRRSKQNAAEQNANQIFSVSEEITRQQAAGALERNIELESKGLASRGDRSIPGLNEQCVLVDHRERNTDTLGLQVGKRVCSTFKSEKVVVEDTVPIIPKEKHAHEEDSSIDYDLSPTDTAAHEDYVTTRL
Description: mouse TRPC4 channel activators, dose response, cell-based, HEK293 TRPC4/mu-opioid, Fluo-4 calcium (AID 434937). The assay is classed as functional.

Assay [3] has as its target Heat shock protein HSP 90-alpha (Homo sapiens, UniProt P07900). The assay is classed as functional, organism-based.

Where a name gives a salt, the structure may show the parent alone. The source made the active and inactive calls.

On to `O=C(CCl)Oc1ccc2occ(C(=O)c3cccs3)c2c1`, for which, in assay [1], the AC50 (in general, the concentration at which the activity in the assay is half-maximal) is 16.8 µM (active). Further, on Protein RecA, the EC50 – broadly, the concentration that produces a half-maximal response – is 19.3 µM (active).
As to `CC[C@@H](CO)NC(=O)[C@@H]1C=C2c3cccc4c3c(cn4C)C[C@H]2N(C)C1` [METHYSERGIDE MALEATE], the half-maximal effective concentration (EC50) in assay [2] was 1.5 µM (active); at Protein RecA it was 237 µM (active). In addition, in assay [1], the AC50 is > 380 µM (inactive).
As for `CCCCCCCCCCOC(=O)C[n+]1c(COc2ccc(C)cc2)n(C)c2ccccc21`, the AC50 in assay [1] is 3.82 µM (active); in assay [3], 19.3 µM (active). In addition, at Protein RecA, the EC50 is 11.7 µM (active).
In the case of `CCN1/C(=C\c2ccc3ccccc3[n+]2CC)Sc2cc(C)ccc21`, in assay [2], the concentration for a half-maximal effect (EC50) was 4.73 µM (active). Further, the AC50 in assay [3] was 7.75 µM (active).

The values above are taken from ChEMBL document CHEMBL1201862, “PubChem BioAssay data set” (2004).
